Experimental findings from US10752591B2, “18-20 member bi-polycyclic compounds” (Haro Pharmaceutical Inc., priority 2014, dated 2020) are described below.

Each structure is given as a SMILES string.

As a reminder, the AUC(0-inf) is total exposure, with the tail of the curve extrapolated. A high value points to high exposure. By Cmax is commonly meant the highest concentration seen after dosing. Usually MRT stands for the average time that molecules of a dose stay in the body. What is called Tmax is the time at which the peak concentration occurs.

One series relates to RXR. As to the kind of experiment: RXR-mediated transcription, RXRE luciferase reporter in MCF7 cells. In kind it is cell-based. The text has this:
The effect of various compounds of the invention on RAR-mediated transcription in MCF7 breast cancer cells was examined by measuring their effect on the transcription of a luciferase reporter gene under the control of a TK promoter placed downstream of a RAR response element. In addition, the effect of the compounds on the closely related RXR-mediated transcription was examined by measuring their effect on the transcription of a luciferase reporter gene under the control of a TK promoter placed downstream of a RXR response element.
Typically, 10,000 cells were plated in 96 wells plates in phenol red-free RPMI medium supplemented with 10% charcoal-stripped Fetal Bovine Serum. After 24 hours, cells were transfected with 0.1 μg of luciferase reporter plasmid and 0.01 μg of a reporter plasmid expressing renilla luciferase (RLuc) gene under the control of a SV40 promoter, using Fugene 6 transfection reagent (0.5 μl/well Promega Corporation). Cells were treated in triplicate with compounds or vehicle (DMSO) for 24 hours. Luciferase and renilla luciferase activities were measured using Dual-Glo reagent (Promega Corporation). Luciferase activity was normalized in each well for renilla activity.
For orientation: In a reporter assay the amount or activity of a reporter protein is the signal.

The subject of series [1] is C2Cl2 cells. The series is described as follows: myoblast fusion in long term C2Cl2 cultures (MHC immunocytochemistry). In kind it is cell-based. On the procedure: The effect of compounds on myoblast fusion was examined in C2Cl2 cells maintained in RPMI media supplemented with 2% horse serum. C2Cl2 myoblastic cells where purchased from the American Type Culture Collection (ATCC) and maintained undifferentiated in RPMI media (Corning) supplemented with 2 mM L-Alanine-L-Glutamine (ATCC) and 1 mM pyruvate (Corning). Undifferentiated cells where maintained below 70% confluence. For long term cultures and compound treatment, cells where plated at high density CellBIND Culture Dishes (corning 3294, 3296, 3337) and in RPMI supplemented with 2% Horse Serum (Gibco) and 2 mM L-Alanine-L-Glutamine (ATCC) and 1 mM pyruvate (Corning). Compounds were dissolved in DMSO at 1000 time the final concentration and diluted 1-in-1000 in the media covering the cells. Media and compounds were changed daily. For immunocytochemistry, cells were fixed in 2% PFA in HBSS for 10 minutes and left in HBSS at 4° under humidified atmosphere and processed for immunocytochemistry. For myosin heavy chain detection (MHC), cells were first incubated in 100 ul-1 ml 0.15 M Glycine in DPBS for 10 minutes, rinse with DPBS. 100 ul-1 ml 0.5% Triton-X in DPBS was added for 10 minutes, rinsed with DPBS, and followed by incubation with 100 ul blocking agent (10% goat serum in DPBS) for 30 min at room temperature. MF20 primary antibody in 10% goat serum in DPBS was added at 1/60 dilution for 30 min at room temperature and rinsed three times with 100 ul DPBS. IgG2b goat anti mouse secondary antibody (Jackson Immuno-Research) was added at 1:1000 in 10% goat serum in DPBS for exactly 30 min at room temperature then rinsed 3 times with 100 ul DPBS. A final rinse in H2O was performed and cells were covered with two drops of Elvanol and cover gently with cover slip and allowed to dry in the dark for 24-48 hours.

The subject of the next series is C2Cl2 myoblasts. The series is described as follows: myotube fusion and degeneration in differentiated C2Cl2 cells left in exhausted media. In kind it is cell-based. The note with it: 200 nM pre-treatment. On the procedure:
C2Cl2 myoblasts were seeded at 100,000 in 30 mm plate in growth medium (Phenol red-free RMPI containing 10% FBS, Sodium pyruvate and Ala-Glu), and “pre-treated” with DMSO or 200 nM of compounds 13 or 17. At confluence cells were shifted to differentiation media (high glucose DMEM, +0.2% HS+1× Insulin/Transferrin/Selenium (Life Tech 41400-045)+Glutamine, without Pyruvate). Fully differentiated C2Cl2-derived myotubes were left in culture without media renewal for 8 days followed by media renewal and microscopic examination.

The subject of series [2] is C2Cl2 cells. The series is described as follows: Q-RT PCR of myofiber-degradation associated genes in long term C2Cl2 cultures. The format is cell-based. The note with it: day 10, normalized for RPLP0. On the procedure:
Quantitative RT-PCR was performed on RNA prepared from cell treated as in Example 9. At day 10 of the experiment, cells were rinsed in HBSS (without calcium or magnesium) and RNA was prepared using FastLane Cell cDNA Kit (Qiagen). Quantitative PCR was performed using Eppendorf and SYBR amplification mix (Sigma-Aldrich) using the gene specific primer combination given in Table 3. Data were normalized for ribosomal housekeeping gene RPLP0

The nature of another series: mouse pharmacokinetics. The note with it: mice. In kind it is in vivo. How it is done: Mouse pharmacokinetics studies were conducted in female athymic nude or male C57/B6 mice (n=3). Due to its very poor aqueous solubility, compound 17 was formulated in 66% PEG-400/33% H2O-1% Tween-80. In contrast compound 13 was formulated in 66% PEG-400/33% H2O. Compounds were administered PO (30 mg/kg) or IV (5 mg/kg), and plasma concentrations were measured by UV/HPLC.

A further series is described as follows: aqueous solubility. The format is physicochemical.
The mark [3] stands for this setting: mouse, plasma, PO (30 mg/kg) or IV (5 mg/kg), route per parameter not stated.

With `CC1(C)CCC(C)(C)c2cc(-c3ccc4cc(C(=O)NO)ccc4c3)ccc21` [Compound 17], the “transcriptional activation of RXR / RXRE-promoter” value in the series on RXR was “none”. In addition, in the series on C2Cl2 cells [1] (300 nM), the “myotubes' length and diameter versus DMSO” value was “longer and larger”. In the series with C2Cl2 cells [1] (300 nM, 10 days), the “average nuclei per cell of polynucleated myotubes” value is 5-10 nuclei per cell. Besides, in the series with C2Cl2 cells [1] (long-term culture, suboptimal RPMI media with 2% horse serum), the “fusion of single cells into multinucleated C2Cl2 myotubes” value was “enhances the fusion”. In addition, in the series on C2Cl2 myoblasts, the “cellular fusion after 72 hours differentiation versus DMSO” value is listed as “extensive cellular fusion” and the “myotube structural atrophy in exhausted media for over 8 days” value is on record as “very little structural alteration”. Besides, in the series with C2Cl2 cells [2], the “expression of Atrogin” value was “downregulates” and the expression of myogenin entry is “downregulates”. The same compound showed a F in “mouse pharmacokinetics” (PO (30 mg/kg) and IV (5 mg/kg)) of 19.7%. Also, in the series “mouse pharmacokinetics” (setting [3]), the AUC(0-inf) was 28.7 µM·h and the Cmax was 2080 nM. The clearance in “mouse pharmacokinetics” (mouse, plasma, PO (30 mg/kg) or IV (5 mg/kg), route per parameter not stated, read-out: CLp) worked out at 10.2 mL/min/kg. Further, the MRT in the series “mouse pharmacokinetics” (mouse, plasma, PO (30 mg/kg) or IV (5 mg/kg), route per parameter not stated, read-out: MRT) came to 7.1 h. Also, the Tmax in the series “mouse pharmacokinetics” (mouse, plasma, PO (30 mg/kg) or IV (5 mg/kg), route per parameter not stated, read-out: Tmax) is 4.3 h. Besides, in “mouse pharmacokinetics” (mouse, plasma, PO (30 mg/kg) or IV (5 mg/kg), route per parameter not stated, read-out: Vd,ss), the Vd came out at 4.6 L/kg. For the same compound, the aqueous solubility entry in the series “aqueous solubility” is “very poor”.
